Patent US20220296599A1, “Pharmaceutical composition comprising histone deacetylase inhibitor and methotrexate” (Chong Kun Dang Pharmaceutical Corp., priority 2018, published 2022)

Assays:
[1] = test system: anti-CCP IgG; experiment: Analysis of anti-CCP IgG in plasma in AIA model (QUANTA Lite CCP3 IgG ELISA); assay type: in vivo, Lewis rats; details: Mean ± SD
Procedure: (§1) Lewis rats (female, five-weeks old) were purchased from Central Lab Animal, Inc. and kept in a controlled environment with a temperature at 22±2° C., a humidity at 44-56% and a light/dark cycle of 12 hours, while being allowed to have a free access to standard diet and water for one week before an examination. Complete Freund's Adjuvant (Chondrex) containing 10 mg/mL of heat killed mycobacteria toxin was fully mixed together, after which […] thereof was taken and subcutaneously injected into each upper tail of the rats to induce arthritis therefrom.
(§2) To administer a drug of compound 374 (SM374) and evaluate an effect thereof, the rats were divided into 11 groups (9, 10 or 11 animals per group) one day before or nine days after inducing arthritis, after which each group was classified according to administered substances (vehicle, compound 374 (SM374) or methotrexate (MTX)) and administration routes (oral administration (P.O.) or intraperitoneal administration (I.P.)) as shown in a following table 13.
An effect of compound 374 (SM374) and MTX on preventing or treating arthritis according to administration thereof in combination was evaluated based on analysis of anti-CCP IgG, known as a diagnosis marker for rheumatoid arthritis.
Particularly, blood was collected from each jugular vein of rats dosed with compound 374 (SM374, once per day) and MTX (once or twice per week) from 9th day to 16th day after inducing AIA, after which plasma was isolated therefrom, such that anti-CCP IgG was measured with QUANTA Lite®CCP3 (cyclic citrullinated peptide 3) IgG ELISA kit (INOVA Diagnostics Inc., U.S., catalog no. 704535) according to a protocol offered by a manufacturer thereof, wherein the results thereof are shown in FIG. 5 and Table 20.

[2] = Pharmacokinetic analysis, plasma concentration by LC/MS; assay type: in vivo; details: rats, MTX 1 mg/kg only
Procedure: A bioequivalence was evaluated through a pharmacokinetic test on administration of the inventive compound 374 (SM374) and MTX in combination as well as administration of MTX only.
Particularly, after administration of compound 374 (SM374) and MTX, plasma was isolated from blood collected from rats for each time slot, after which organic solvent was added into such plasma to carry out deproteinization and extraction, such that a resulting sample was subjected to quantitative analysis by means of liquid chromatography and mass spectrometer (LC/MS) along with a calibration sample treated under the same conditions, to measure a concentration of compound 374 (SM374) and MTX (FIG. 6 and Table 21) in plasma of the rats as well as each PK parameter (Table 22).

[3] = test system: adjuvant-induced arthritis (AIA) model; experiment: Clinical score analysis in adjuvant-induced arthritis (AIA) model; assay type: in vivo, Lewis rats; set-up: Clinical score 9th day / Clinical score 13th day / Clinical score 16th day / Clinical score 11th day / Clinical score 15th day / Clinical score 18th day: scale not given here; details: for Clinical score 9th day / Clinical score 13th day / Clinical score 16th day: Mean ± SD; for Clinical score 11th day / Clinical score 15th day / Clinical score 18th day: Mean ± SEM
Procedure: as §1, §2
(§3) Also, in order to administer a drug of compounds 374, 413, 484, 530 and 652 (SM374, SM413, SM484, SM530 and SM652) and evaluate an effect thereof, the rats were divided into 13 groups (9 or 10 animals per group) eight days after inducing arthritis, and each group was classified according to administered substances (vehicle, SM374, SM413, SM484, SM530, SM652 and MTX) and administration routes (oral or intraperitoneal administration) as shown in a following table 14.
To identify the efficacy of the inventive composition on preventing or treating arthritis in an AIA model, an analysis was made on the clinical scores of rats dosed with a compound 374 (SM 374, once per day) or MTX (once per week or twice per week) from 9th day to 16th day after inducing arthritis.
Particularly, a degree of swelling, erythema, etc., in each joint of the rats were observed, after which clinical scores were calculated according to a scoring system described in a following table 15, such that the clinical scores on four joints were added up to obtain total scores for each rat (Vishwakarma et al., 2013).
To identify the efficacy of the inventive composition on preventing or treating arthritis in an AIA model, an analysis was made on the clinical scores of rats dosed with compounds 374, 413, 484, 530 and 652 (SM374, SM413, SM484, SM530 and SM652, once per day) or MIX (once per week) from 8th day to 18th day after inducing arthritis.

[4] = Analysis of body weights in AIA model; assay type: in vivo, Lewis rats; details: for Body weight (g) 9th day / Body weight (g) 13th day / Body weight (g) 16th day: Mean ± SD; for Body weight (g) 8th day / Body weight (g) 11th day / Body weight (g) 15th day / Body weight (g) 18th day: Table 19 study
Procedure: as §1, §2, §3
An analysis was made on the body weight of rats dosed with compound 374 (SM 374, once per day) or MIX (once per week or twice per week) from 9th day to 16th day after inducing AIA. […]

[5] = MTX 3 mg/kg twice per week I.P.
[6] = Table 17 study, MTX 1 mg/kg once per week I.P.
[7] = Table 17 study, MTX 3 mg/kg once per week I.P.

AUC(0-inf) ([2]; rat, plasma): 1510 ± 231 ng·h/mL
Cmax ([2]; rat, plasma): 1300 ± 97.3 ng/mL
Tmax ([2]; rat, plasma): 30 min
half-life ([2]; rat, plasma): 54 min
AUC(0-t) ([2]; rat, plasma, read-out: AUC0→8h): 1500 ± 231 ng·h/mL
concentration at 0.5 hr ([2]; rat, plasma, time 0.5 hr): 1300 ± 97.3 ng/mL
concentration at 1 hr ([2]; rat, plasma, time 1 hr): 747 ± 129 ng/mL
concentration at 2 hr ([2]; rat, plasma, time 2 hr): 245 ± 108 ng/mL
concentration at 4 hr ([2]; rat, plasma, time 4 hr): 24.4 ± 9.7 ng/mL
concentration at 8 hr ([2]; rat, plasma, time 8 hr): 3 ± 0.3 ng/mL
Plasma concentration (ng/mL) ([2]; time 0 hr): BLOQ
SMILES: CN(Cc1cnc2nc(N)nc(N)c2n1)c1ccc(C(=O)N[C@@H](CCC(=O)O)C(=O)O)cc1 [MTX, Methotrexate]
Anti-CCP IgG (RU) ([1]; MTX 1 mg/kg): 208.0 ± 24.3 RU
Anti-CCP IgG (RU) ([1]; MTX 3 mg/kg): 104.6 ± 56.7 RU
Rate of reduction in clinical scores (%) ([3]; MTX 1 mg/kg once per week I.P., 16th day vs vehicle): 14.5%
Clinical score 9th day ([3]; MTX 1 mg/kg once per week I.P.): 0.0 ± 0.0
Clinical score 13th day ([3]; MTX 1 mg/kg once per week I.P.): 2.2 ± 1.2
Clinical score 16th day ([3]; MTX 1 mg/kg once per week I.P.): 5.9 ± 2.8
Rate of reduction in clinical scores (%) ([3]; MTX 3 mg/kg twice per week I.P., 16th day vs vehicle): 65.2%
Clinical score 9th day [3, 5]: 0.0 ± 0.0
Clinical score 13th day [3, 5]: 1.1 ± 1.6
Clinical score 16th day [3, 5]: 2.4 ± 3.0
Rate of reduction in clinical scores (%) ([3]; Table 17 study, MTX 1 mg/kg once per week I.P., 18th day vs vehicle): 23.0%
Clinical score 11th day [3, 6]: 0.0 ± 0.0
Clinical score 15th day [3, 6]: 1.3 ± 0.9
Clinical score 18th day [3, 6]: 4.7 ± 1.9
Rate of reduction in clinical scores (%) ([3]; Table 17 study, MTX 3 mg/kg once per week I.P., 18th day vs vehicle): 96.7%
Clinical score 11th day [3, 7]: 0.0 ± 0.0
Clinical score 15th day [3, 7]: 0.0 ± 0.0
Clinical score 18th day [3, 7]: 0.2 ± 0.2 #
Body weight (g) 9th day ([4]; MTX 1 mg/kg once per week I.P.): 157.3 ± 11.9 g
Body weight (g) 13th day ([4]; MTX 1 mg/kg once per week I.P.): 160.6 ± 4.2 g
Body weight (g) 16th day ([4]; MTX 1 mg/kg once per week I.P.): 153.8 ± 7.9 g
Body weight (g) 9th day [4, 5]: 157.2 ± 7.3 g
Body weight (g) 13th day [4, 5]: 159.6 ± 5.7 g
Body weight (g) 16th day [4, 5]: 157.6 ± 5.7 g
Body weight (g) 8th day ([4]; MTX 1 mg/kg once per week I.P.): 151.2 ± 2.4 g
Body weight (g) 11th day ([4]; MTX 1 mg/kg once per week I.P.): 152.1 ± 2.3 g
Body weight (g) 15th day ([4]; MTX 1 mg/kg once per week I.P.): 156.9 ± 2.8 g
Body weight (g) 18th day ([4]; MTX 1 mg/kg once per week I.P.): 155.0 ± 3.9 g
Body weight (g) 8th day ([4]; MTX 3 mg/kg once per week I.P.): 151.2 ± 2.4 g
Body weight (g) 11th day ([4]; MTX 3 mg/kg once per week I.P.): 151.6 ± 3.8 g
Body weight (g) 15th day ([4]; MTX 3 mg/kg once per week I.P.): 160.0 ± 2.9 g
Body weight (g) 18th day ([4]; MTX 3 mg/kg once per week I.P.): 164.7 ± 2.5 g
